Results: patent US20220242846A1, “ISOINDOLINONE COMPOUNDS” (Monte Rosa Therapeutics AG, priority 2019, published 2022)
Like-named read-outs stand apart in the source and are kept apart here.

How the values were obtained:
GSPT1 = GSPT1 (Homo sapiens, UniProt P15170+Q96SW2); test: Immunofluorescence assay for GSPT1 degradation in CAL-51 cells; assay type: cell-based; set-up: CAL-51 cells were purchased from DSMZ (cat. Number ACC302); endogenous in cells; host or cells: CAL-51 (DSMZ ACC302); conditions: compound treatment 6 hours
Experimental: CAL-51 cells were purchased from DSMZ (cat. Number ACC302), sub-cultured in 90% Dulbecco's MEM (4.5 g/L glucose, Gibco 11965) +10% heat inactivated FBS (BioConcept, 2-01F136I) and incubated at 37° C., 5% CO2. For the assay, imaging microtiterplate Cell Carrier 96 Ultra (Perkin Elmer 6055302) were pre-coated with Fibronectin (Sigma F085, 300 at 0.2 μg/ml) in PBS (1000, Gibco 14190) for 45 min at room temperature, rinsed with PBS and CAL-51 cells (30K cells/well) were plated and let to adhere overnight. Cells were treated with compounds typically using a serial dilution ranging from 30 μM to 0.1 nM for 6 hours. Compounds were stored at 10 mM DMSO stocks. Vehicle (DMSO), positive (CC-885, 10 μM) and rescue controls (positive control plus 0.2 μM bortezomib) were also included at this stage. Cells were subsequently rinsed with PBS and fixed in 10% Formalin solution (50 μl, Sigma HT5011)) for 20 mins at room temperature. Following three consecutive PBS washes (100 μl), cells were permeabilized in 0.1% Triton X-100 in PBS (Sigma 93443, 50 μl) for 15 mins at room temperature. Following three further PBS washes, 50 μl blocking buffer (1% BSA, Sigma A4503, in PBS) was added for 45 min for signal-to-noise reduction. Primary antibody (human GSPT1, Sigma HPA052488) was diluted in blocking buffer (dil. 1/300, 35 μl/well) and incubated with the cells overnight at 4° C. After three PBS washes, Alexa-fluor 488 coupled secondary antibodies (Invitrogen, A32731, dil. 1/1000), Alexa-fluor 647-Phalloïdin (Invitrogen, A22287, dil. 1/200) and DAPI (Thermo, #62248, dil.1/1000) were diluted in blocking buffer and incubated with the samples for 2 hours at room temperature. After three final PBS washes, samples were conserved in 1000 PBS in the dark, until measurement. Image acquisition was performed on the Operetta High-Content Imager (Perkin-Elmer). Fluorescence intensity of Alexa-Fluor 488 (GSPT1), Alexa-Fluor 647 (Actin) and DAPI (Nucleus) were measured. For the determination of GSPT1 DC50 values, a custom algorithm implemented in the PerkinElmer image analysis software Harmony-Acapella® was developed. After user-defined setting of adjustment parameters, the analysis was run identically without human intervention for all image fields. DAPI staining of the nuclei was used to determine the location of cells using standard nuclei detection modules. Segmentation artifacts were removed by threshold-based filters for area, roundness and intensity. The outline of the cells was determined analogously from the sum of the normalized, smoothed DAPI and Actin channel, starting from each nucleus. The Alexa-Fluor 488 (GSPT1) signal intensity in each cell was finally measured, in order to obtain a Mean intensity per cell. GSPT1 degradation (DC50) was calculated after normalization to controls and data import in CDD vault Database, using non-linear regression. Activity for GSPT1 Degradation Table 3 assigns each compound a code indicating the ability for GSPT1 degradation: A, B or C. According to the code, A represents a DC50 value of ≤100 nM, B represents a DC50 value >100 nM and ≤300 nM and C represents a DC50 value of >300 nM.

[1] = target: T1, Full length wild-type cereblon CRBN (Homo sapiens, UniProt Q96SW2); test: Fluorescence polarization (FP) assay indicating cereblon binding; conditions: CRBN 80.0 nM, fluorescent probe 5 nM, FP measured after 12 hours; read-out: rFP IC50
T1 construct: Full length wild-type cereblon CRBN (80.0 nM, 10 μL) was incubated in assay buffer
From the text: Protocol for Fluorescent Polarization Assay
Compound activity was monitored in a fluorescence polarization (FP) homogeneous assay using 1-[5-({2-[2-(2-{[2-(2,6-dioxopiperidin-3-yl)-1,3-dioxo-2,3-dihydro-1H-isoindol-4-yl]oxy}acetamido)ethoxy]ethyl}carbamoyl)pentyl]-3,3-dimethyl-2-[(1E,3E)-5-[(2E)-1,3,3-trimethyl-5-sulfo-2,3-dihydro-1H-indol-2-ylidene]penta-1,3-dien-1-yl]-3H-indol-1-ium-5-sulfonate as a fluorescent probe. Unless otherwise stated, all reagents were purchased from Sigma Aldrich. Enzymatic reactions were conducted in Perkin-Elmer Black 384 well ProxiPlate Plus (catalogue no. 6008269) in 10 μL total volume. Full length wild-type cereblon CRBN (80.0 nM, 10 μL) was incubated in assay buffer containing 20 mM HEPES (pH 8.0), […], 0.5 mM TCEP and 0.05% Tween 20 in the presence or absence of compound (300 nL). Inhibitors were stored as 10 mM DMSO stocks in an inert environment (low humidity, dark, low oxygen, room temperature) using the Storage Pod System. Compounds and DMSO were dispensed using the Echo E5XX (Labcyte Inc. USA) to give concentrations from 300 to 0.937 or 3000 to 9.3 nM in a 12 data point curve. […] Following incubation at room temperature for […], the assay was initiated by dispensing the probe to a final concentration of 5 nM (2.5 nL of a 20 μM stock) using the Echo E5XX. FP was measured after a period of 12 hours using a Pherastar plate reader (BMG Labtech, Germany) exciting at 590 nm and measuring the amount of parallel and perpendicular light at 675 nm. The FP signal was subsequently normalized to the no-compound control (i.e., DMSO). Analysis and IC50 values were derived using Dotmatics (Dotmatics UK) software.

[2] = read-out: Code: activity for GSPT1 degradation (DC50)

Chain of GSPT1 (P15170 whole entry): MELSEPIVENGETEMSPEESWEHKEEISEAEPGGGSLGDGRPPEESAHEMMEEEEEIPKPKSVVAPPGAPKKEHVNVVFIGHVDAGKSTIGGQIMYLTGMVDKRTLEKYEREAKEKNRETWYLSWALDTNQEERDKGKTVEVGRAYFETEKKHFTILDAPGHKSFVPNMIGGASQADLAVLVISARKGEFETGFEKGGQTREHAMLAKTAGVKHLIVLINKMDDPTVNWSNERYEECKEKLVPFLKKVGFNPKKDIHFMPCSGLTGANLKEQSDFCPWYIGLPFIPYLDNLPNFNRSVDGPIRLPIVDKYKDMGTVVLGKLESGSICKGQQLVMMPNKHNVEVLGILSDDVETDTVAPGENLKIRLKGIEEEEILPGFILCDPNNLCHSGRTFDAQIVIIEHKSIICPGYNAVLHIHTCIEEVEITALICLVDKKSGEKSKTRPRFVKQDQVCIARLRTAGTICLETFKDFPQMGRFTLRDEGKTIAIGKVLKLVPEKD
Chain of GSPT1 (Q96SW2 whole entry): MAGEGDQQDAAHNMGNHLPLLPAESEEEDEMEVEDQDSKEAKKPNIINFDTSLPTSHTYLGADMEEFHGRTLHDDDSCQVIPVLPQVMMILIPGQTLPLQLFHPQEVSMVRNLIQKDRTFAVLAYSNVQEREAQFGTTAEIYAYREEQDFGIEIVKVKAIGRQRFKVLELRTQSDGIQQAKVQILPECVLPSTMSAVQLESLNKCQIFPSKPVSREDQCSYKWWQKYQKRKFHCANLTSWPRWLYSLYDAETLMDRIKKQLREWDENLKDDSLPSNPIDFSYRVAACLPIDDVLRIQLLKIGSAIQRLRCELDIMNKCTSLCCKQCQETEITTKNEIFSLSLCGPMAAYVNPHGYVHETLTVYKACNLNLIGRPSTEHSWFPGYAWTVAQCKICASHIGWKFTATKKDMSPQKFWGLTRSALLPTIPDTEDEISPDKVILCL
Chain of GSPT1 (Q16531 2-1140 partner limits assumed): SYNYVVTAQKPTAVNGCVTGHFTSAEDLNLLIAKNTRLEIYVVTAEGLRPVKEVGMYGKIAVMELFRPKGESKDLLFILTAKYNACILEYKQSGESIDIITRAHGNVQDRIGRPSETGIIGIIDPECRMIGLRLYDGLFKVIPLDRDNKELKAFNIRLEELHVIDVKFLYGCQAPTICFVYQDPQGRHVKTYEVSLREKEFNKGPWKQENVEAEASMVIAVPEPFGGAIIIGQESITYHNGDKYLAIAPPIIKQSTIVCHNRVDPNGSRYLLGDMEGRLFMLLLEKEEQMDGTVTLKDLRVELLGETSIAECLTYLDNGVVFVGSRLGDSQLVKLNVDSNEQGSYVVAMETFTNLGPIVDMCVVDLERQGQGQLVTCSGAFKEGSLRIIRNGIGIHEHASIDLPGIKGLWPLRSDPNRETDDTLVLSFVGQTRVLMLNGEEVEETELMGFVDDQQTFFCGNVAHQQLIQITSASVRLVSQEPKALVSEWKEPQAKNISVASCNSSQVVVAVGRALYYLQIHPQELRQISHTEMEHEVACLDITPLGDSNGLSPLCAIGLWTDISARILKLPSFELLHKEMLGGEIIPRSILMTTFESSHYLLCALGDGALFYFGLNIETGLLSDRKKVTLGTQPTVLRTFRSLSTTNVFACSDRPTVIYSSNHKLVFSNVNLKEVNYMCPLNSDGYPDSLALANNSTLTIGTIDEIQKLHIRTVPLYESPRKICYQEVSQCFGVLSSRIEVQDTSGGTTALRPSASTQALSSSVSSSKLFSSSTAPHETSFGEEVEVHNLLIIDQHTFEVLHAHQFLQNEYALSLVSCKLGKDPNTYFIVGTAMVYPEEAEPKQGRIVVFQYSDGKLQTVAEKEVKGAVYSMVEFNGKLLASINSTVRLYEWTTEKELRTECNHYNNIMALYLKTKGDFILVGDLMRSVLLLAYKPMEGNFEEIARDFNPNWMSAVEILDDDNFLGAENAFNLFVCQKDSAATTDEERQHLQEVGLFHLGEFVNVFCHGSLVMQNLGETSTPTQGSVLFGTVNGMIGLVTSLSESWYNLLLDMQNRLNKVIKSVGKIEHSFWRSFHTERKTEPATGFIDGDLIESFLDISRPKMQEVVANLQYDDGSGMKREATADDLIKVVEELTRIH
T1 sequence (Q96SW2 whole entry): as the sequence (Q96SW2 whole entry) above

Row | DC50 (GSPT1; [2]) [nM] | IC50 [1] [nM] | DC50 (GSPT1; GSPT1 degradation, read-out: DC50) [nM] | SMILES
1 | ≤ 100 | 352 |  | Cc1c(Cl)cc(NC(=O)NCc2ccc3c(c2)C(=O)N(C2CCC(=O)NC2=O)C3)cc1C[C@H]1CO[C@H](C)OC1 (stereo partly drawn) [Compound 141]
2 | ≤ 100 | 594 |  | Cc1c(Cl)cc(NC(=O)NCc2ccc3c(c2)C(=O)N(C2CCC(=O)NC2=O)C3)cc1CC1COC(C)(C)OC1 (stereo not drawn) [Compound 142]
3 | 100 to 300 | 3590 |  | Cc1c(Cl)cc(NC(=O)NCc2ccc3c(c2)C(=O)N(C2CCC(=O)NC2=O)C3)cc1OC(F)(F)F (stereo not drawn) [Compound 143]
4 | ≤ 100 | 544 |  | Cc1ccc(NC(=O)NCc2ccc3c(c2)C(=O)N(C2CCC(=O)NC2=O)C3)cc1OC(F)(F)F (stereo not drawn) [Compound 144]
5 | ≤ 100 | 741 |  | Cc1c(Cl)cc(NC(=O)NCc2ccc3c(c2)C(=O)N(C2CCC(=O)NC2=O)C3)cc1C[C@H]1CO[C@@H](C)OC1 (stereo partly drawn) [Compound 145]
6 | > 300 | 341 |  | Cc1cc(NC(=O)NCc2ccc3c(c2)C(=O)N(C2CCC(=O)NC2=O)C3)sn1 (stereo not drawn) [Compound 146]
7 | > 300 | 253 |  | Cc1cnc(NC(=O)NCc2ccc3c(c2)C(=O)N(C2CCC(=O)NC2=O)C3)s1 (stereo not drawn) [Compound 147]
8 | > 300 | 169 |  | CCc1cnc(NC(=O)NCc2ccc3c(c2)C(=O)N(C2CCC(=O)NC2=O)C3)s1 (stereo not drawn) [Compound 148]
9 | > 300 | 1130 |  | O=C1CCC(N2Cc3ccc(CNC(=O)Nc4cc(C(F)(F)F)ns4)cc3C2=O)C(=O)N1 (stereo not drawn) [Compound 149]
10 | > 300 | 304 |  | Cc1nc(NC(=O)NCc2ccc3c(c2)C(=O)N(C2CCC(=O)NC2=O)C3)sc1C (stereo not drawn) [Compound 150]
11 | ≤ 100 | 883 |  | Cc1c(CN2CCOCC2)cc(NC(=O)NCc2ccc3c(c2)C(=O)N(C2CCC(=O)NC2=O)C3)cc1OC(F)(F)F (stereo not drawn) [Compound 151]
12 | > 300 | 284 |  | Cc1ccc(CNC(=O)NCc2ccc3c(c2)C(=O)N(C2CCC(=O)NC2=O)C3)cc1Cl (stereo not drawn) [Compound 152]
13 | > 300 | 1840 |  | O=C1CCC(N2Cc3ccc(CNC(=O)Nc4ccc5c(c4)OCO5)cc3C2=O)C(=O)N1 (stereo not drawn) [Compound 153]
14 | 100 to 300 | 581 | 176 | Cc1c(Cl)cc(NC(=O)NCc2ccc3c(c2)C(=O)N(C2CCC(=O)NC2=O)C3)cc1C12CC1CN(C)C2 (stereo not drawn) [Compound 155]
15 | > 300 | 607 |  | Cc1c(Cl)cc(NC(=O)NCc2ccc3c(c2)C(=O)N(C2CCC(=O)NC2=O)C3)cc1C=O (stereo not drawn) [Compound 156]
16 | > 300 | 1520 |  | Cc1ncc(NC(=O)NCc2ccc3c(c2)C(=O)N(C2CCC(=O)NC2=O)C3)cc1Cl (stereo not drawn) [Compound 157]
17 | > 300 | 1440 |  | Cc1cc(NC(=O)NCc2ccc3c(c2)C(=O)N(C2CCC(=O)NC2=O)C3)cc(C)n1 (stereo not drawn) [Compound 158]
18 | > 300 | 676 |  | Cc1ccc(NC(=O)NCc2ccc3c(c2)C(=O)N(C2CCC(=O)NC2=O)C3)cc1OC(F)F (stereo not drawn) [Compound 159]
19 | > 300 | 300 |  | CN1CCC(COc2cc(Cl)cc(NC(=O)NCc3ccc4c(c3)C(=O)N(C3CCC(=O)NC3=O)C4)c2)C1 (stereo not drawn) [Compound 161]

The next lines start with the compound.

Row | SMILES | DC50 (GSPT1; [2]) [nM] | IC50 [1] [nM] | DC50 (GSPT1; GSPT1 degradation, read-out: DC50) [nM]
20 | O=C1CCC(N2Cc3ccc(CNC(=O)Nc4cc(Cl)cc(CN5CCOCC5)c4)cc3C2=O)C(=O)N1 (stereo not drawn) [Compound 119] | ≤ 100 | 408 | 
21 | Cc1c(Cl)cc(NC(=O)NCc2ccc3c(c2)C(=O)N(C2CCC(=O)NC2=O)C3)cc1CC(=O)O (stereo not drawn) [Compound 120] | > 300 | 453 | 
22 | O=C1CCC(N2Cc3ccc(CNC(=O)Nc4cccc(Oc5ccccn5)c4)cc3C2=O)C(=O)N1 (stereo not drawn) [Compound 121] | 100 to 300 | 243 | 
23 | Cc1c(Cl)cc(NC(=O)NCc2ccc3c(c2)C(=O)N(C2CCC(=O)NC2=O)C3)cc1N1CCOCC1 (stereo not drawn) [Compound 122] | ≤ 100 | 657 | 
24 | O=C1CCC(N2Cc3ccc(CNC(=O)Nc4ccccn4)cc3C2=O)C(=O)N1 (stereo not drawn) [Compound 123] | > 300 | 570 | 
25 | Cc1c(Cl)cc(NC(=O)NCc2ccc3c(c2)C(=O)N(C2CCC(=O)NC2=O)C3)cc1CN1CCN(C)CC1 (stereo not drawn) [Compound 124] | > 300 | 198 | 
26 | COCCOc1cc(NC(=O)NCc2ccc3c(c2)C(=O)N(C2CCC(=O)NC2=O)C3)cc(Cl)c1C (stereo not drawn) [Compound 125] | ≤ 100 | 596 | 
27 | Cc1c(Cl)cc(NC(=O)NCc2ccc3c(c2)C(=O)N(C2CCC(=O)NC2=O)C3)cc1CN1CCC(N2CCOCC2)CC1 (stereo not drawn) [Compound 126] | > 300 | 193 | 
28 | Cc1c(Cl)cc(NC(=O)NCc2ccc3c(c2)C(=O)N(C2CCC(=O)NC2=O)C3)cc1OCCN1CCOCC1 (stereo not drawn) [Compound 127] | ≤ 100 | 261 | 
29 | Cn1ccc(NC(=O)NCc2ccc3c(c2)C(=O)N(C2CCC(=O)NC2=O)C3)c1 (stereo not drawn) [Compound 128] | > 300 | 302 | 
30 | Cc1c(Cl)cc(NC(=O)NCc2ccc3c(c2)C(=O)N(C2CCC(=O)NC2=O)C3)cc1N(C)C (stereo not drawn) [Compound 129] | ≤ 100 | 350 | 
31 | CN1CCC(Oc2cccc(NC(=O)NCc3ccc4c(c3)C(=O)N(C3CCC(=O)NC3=O)C4)c2)CC1 (stereo not drawn) [Compound 130] | > 300 | 358 | 
32 | CC(C)(O)c1ccc(NC(=O)NCc2ccc3c(c2)C(=O)N(C2CCC(=O)NC2=O)C3)cc1 (stereo not drawn) [Compound 131] | > 300 | 334 | 
33 | Cc1c(Cl)cc(NC(=O)NCc2ccc3c(c2)C(=O)N(C2CCC(=O)NC2=O)C3)cc1CN1CCC(N(C)C)CC1 (stereo not drawn) [Compound 133] | > 300 | 252 | 
34 | Cc1c(Cl)cc(NC(=O)NCc2ccc3c(c2)C(=O)N(C2CCC(=O)NC2=O)C3)cc1OCCN(C)C (stereo not drawn) [Compound 134] | > 300 | 394 | 
35 | CC(C)(O)c1cccc(NC(=O)NCc2ccc3c(c2)C(=O)N(C2CCC(=O)NC2=O)C3)c1 (stereo not drawn) [Compound 135] | > 300 | 477 | 
36 | CN(C)CC(=O)Oc1cccc(NC(=O)NCc2ccc3c(c2)C(=O)N(C2CCC(=O)NC2=O)C3)c1 (stereo not drawn) [Compound 136] | > 300 | 425 | 
37 | Cc1ccc(NC(=O)NCc2ccc3c(c2)C(=O)N(C2CCC(=O)NC2=O)C3)nc1Cl (stereo not drawn) [Compound 137] | > 300 | 1140 | 
